Key:
[1] = Encapsulation rate of lipid nanoparticles (Ribogreen); assay type: physicochemical
How it was run: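 Ribogreen fluorescence (Ex/Em 500/525 nm) measured after mixing sample 1:1 with 10 mM HEPES pH 7.4 buffer with or without Triton X-100. mRNA quantified from a calibration curve of known mRNA dilutions; encapsulation rate (%) calculated from Triton(+) versus Triton(−) signals.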

liver = test: Fluc activity in the liver of mice administered Fluc mRNA-loaded lipid nanoparticles; assay type: in vivo, BALB/c mice
Experimental: Lipid nanoparticles were administered to mice by intravenous injection into the tail vein using a 27G needle. Unless otherwise specified, BALB/c mice (4 to 5 weeks old, female) were used.
First, BALB/c mice (female, 4 weeks old) were intravenously injected with lipid nanoparticles encapsulating Fluc mRNA (Fluc mRNA-loaded lipid nanoparticles) at a dose of 0.1 mg mRNA/kg. Six hours after intravenous injection, the mice were euthanized, each tissue was collected, frozen in liquid nitrogen, and stored at -80°C. The tissues were homogenized in passive lysis buffer (manufactured by Promega) using a bead-type cell disruptor (Micro Smash MS-100R, manufactured by TOMY Seiko). Tissue debris was removed by centrifugation, and the supernatant was collected. Fluc activity in the supernatant was measured using the Luciferase Assay System (E1500, manufactured by Promega) according to the manufacturer's protocol. Luminescence was measured using a luminometer (Luminescencer-PSN, manufactured by ATTO). Protein concentration was determined using a commercially available assay kit (BCA Protein Assay Kit, manufactured by Pierce). Fluc activity was expressed as relative light units (RLU) per mg of protein.
Subsequently, lipid nanoparticles encapsulating Fluc mRNA prepared using TxT-5-5A10, TxT-5-5A12, TxT-5-5A12β, TxT-5-5A14, and TxT-5-5A16 were administered to mice to evaluate luciferase expression levels (Fluc activity) in various tissues. Specifically, each Fluc mRNA-loaded lipid nanoparticle was administered to Balb/c mice at a dose of 0.1 mg mRNA/kg. Six hours after administration, the mice were euthanized, and their organs were collected to measure Fluc activity (RLU/mg protein) (N = 2 or 4).

[2] = Apparent pKa of lipid nanoparticles (TNS)
Experimental: The apparent pKa of the lipid nanoparticles was measured using p-toluenesulfonic acid (TNS). First, TNS (final concentration: 0.75 µM) and lipid nanoparticles (final concentration: 30 µM) were mixed in a buffer (200 mL) adjusted to each pH (pH 3.5 to 9.5). As the buffer, 20 mM citrate buffer, 20 mM sodium phosphate buffer, or 20 mM Tris-HCl buffer containing 130 mM NaCl was used. The fluorescence intensity of the prepared mixture was measured using a fluorescence spectrophotometer (Varioskan Lux, manufactured by Thermo Fisher Scientific) with the settings of λex=321 nm and λem=447 nm. Among the measured values, the highest value and the lowest value were set as 100% and 0% ionization degrees, respectively, and the pH showing a 50% ionization degree was calculated as the apparent pKa. The content ratio (%) of cationically charged pH-sensitive cationic lipid was calculated using the Henderson-Hasselbalch equation.

[3] = Average particle size and polydispersity index of lipid nanoparticles (dynamic light scattering); assay type: physicochemical
Experimental: (§1) The average particle size (number average value), ζ-average particle size, and polydispersity index (PdI) of the lipid nanoparticles in PBS(-) (pH 7.4), and the zeta potential in 10 mM HEPES buffer (pH 7.4) were measured using an analyzer "Zetasizer Nano ZS ZEN3600" (manufactured by Malvern) utilizing dynamic light scattering.

[4] = Zeta potential of lipid nanoparticles; assay type: physicochemical
Experimental: as §1

[5] = Table 1, Fluc mRNA-loaded lipid nanoparticles, TxT/DSPC/chol/PEG-DMG=50/15/35/1.5 (mol%)
[6] = Table 2, Fluc mRNA-loaded lipid nanoparticles, TxT-5-5A16/DSPC/chol/PEG-DMG=50/X/50-X/1.5 (mol%), DSPC concentration 3 mol %
[7] = Table 2, Fluc mRNA-loaded lipid nanoparticles, TxT-5-5A16/DSPC/chol/PEG-DMG=50/X/50-X/1.5 (mol%), DSPC concentration 6 mol %
[8] = Table 2, Fluc mRNA-loaded lipid nanoparticles, TxT-5-5A16/DSPC/chol/PEG-DMG=50/X/50-X/1.5 (mol%), DSPC concentration 9 mol %
[9] = Table 2, Fluc mRNA-loaded lipid nanoparticles, TxT-5-5A16/DSPC/chol/PEG-DMG=50/X/50-X/1.5 (mol%), DSPC concentration 12 mol %
[10] = Table 2, Fluc mRNA-loaded lipid nanoparticles, TxT-5-5A16/DSPC/chol/PEG-DMG=50/X/50-X/1.5 (mol%), DSPC concentration 15 mol %
[11] = Table 3, Fluc mRNA-loaded lipid nanoparticles, TxT/DSPC/chol/PEG-DMG=50/3/47/1.5 (mol%)
[12] = Table 5, EGFP mRNA-loaded lipid nanoparticles, TxT/DSPC/chol/PEG-DMG=50/3/47/1.5 (mol%), total flow rate 3.0 mL/min
[13] = Example 23, Fig. 2A, TxT-5-5A16/DSPC/chol/PEG-DMG=50/X/50-X/1.5 (mol%), 0.1 mg mRNA/kg, six hours

- mRNA concentration [1, 5]: 0.020 µg/µL
- mRNA encapsulation rate [1, 5]: 96.7%
- mRNA concentration [1, 6]: 0.023 µg/µL
- mRNA encapsulation rate [1, 6]: 98.8%
- mRNA concentration [1, 7]: 0.024 µg/µL
- mRNA encapsulation rate [1, 7]: 98.9%
- mRNA concentration [1, 8]: 0.024 µg/µL
- mRNA encapsulation rate [1, 8]: 98.3%
- mRNA concentration [1, 9]: 0.024 µg/µL
- mRNA encapsulation rate [1, 9]: 97.0%
- mRNA concentration [1, 10]: 0.020 µg/µL
- mRNA encapsulation rate [1, 10]: 95.6%
- mRNA concentration [1, 11]: 0.023 µg/µL
- mRNA encapsulation rate [1, 11]: 98.8%
- mRNA concentration [1, 12]: 0.022 µg/µL
- mRNA encapsulation rate [1, 12]: 99.2%
- pKa ([2]; Table 1, apparent pKa of Fluc mRNA-loaded lipid nanoparticles, TxT/DSPC/chol/PEG-DMG=50/15/35/1.5 (mol%)): 6.27
- pKa [2, 6]: 6.28
- pKa [2, 7]: 5.88
- pKa [2, 8]: 5.41
- pKa [2, 9]: 6.24
- pKa [2, 10]: 6.36
- pKa [2, 11]: 6.28
- Pdl [3, 5]: 0.11
- number average particle size [3, 5]: 61.0 nm
- ζ-average particle size [3, 5]: 85.6 nm
- Pdl [3, 6]: 0.0
- number average particle size [3, 6]: 93.3 nm
- ζ-average particle size [3, 6]: 114.0 nm
- Pdl [3, 7]: 0.04
- number average particle size [3, 7]: 78.6 nm
- ζ-average particle size [3, 7]: 96.8 nm
- Pdl [3, 8]: 0.08
- number average particle size [3, 8]: 66.3 nm
- ζ-average particle size [3, 8]: 90.2 nm
- Pdl [3, 9]: 0.07
- number average particle size [3, 9]: 64.4 nm
- ζ-average particle size [3, 9]: 85.1 nm
- Pdl [3, 10]: 0.14
- number average particle size [3, 10]: 60.8 nm
- ζ-average particle size [3, 10]: 88.3 nm
- Pdl [3, 11]: 0.03
- number average particle size [3, 11]: 93.3 nm
- ζ-average particle size [3, 11]: 114.0 nm
- Pdl [3, 12]: 0.04
- number average particle size [3, 12]: 112.5 nm
- ζ-average particle size [3, 12]: 132.4 nm
- ζ-potential [4, 5]: -3.3 mV
- ζ-potential [4, 6]: -2.7 mV
- ζ-potential [4, 7]: -2.4 mV
- ζ-potential [4, 8]: -2.2 mV
- ζ-potential [4, 9]: -1.9 mV
- ζ-potential [4, 10]: -4.1 mV
- ζ-potential [4, 11]: -2.7 mV
- ζ-potential [4, 12]: -8.4 mV
Structure (SMILES): CCCCCCCCN(CCCCCCCC)C(=O)CCCC(=O)OCC(COC(=O)CCCC(=O)N(CCCCCCCC)CCCCCCCC)(COC(=O)CCCC(=O)N(CCCCCCCC)CCCCCCCC)NC(=O)CCN1CCCCC1 [TxT-5-5A16, 2-(((5-(dioctylamino)-5-oxopentanoyl)oxy)methyl)-2-(3-(piperidin-1-yl)propanamido)propane-1,3-diyl bis(5-(dioctylamino)-5-oxopentanoate)]
- Fluc activity in the liver (liver; Example 22, Fig. 1, TxT/DSPC/chol/PEG-DMG=50/15/35/1.5 (mol%), 0.1 mg mRNA/kg intravenous, six hours after administration, comparison among TxT lipids): highest Fluc activity in the liver
- Effect of DSPC content on Fluc activity in the liver (liver; [13]): Fluc activity increased as the DSPC content decreased
- Fluc activity in the liver, 3 mol% DSPC compared to 15 mol% DSPC (liver; [13]): approximately 10 times

— EP4722195A1, “PH-SENSITIVE CATIONIC LIPID AND LIPID NANOPARTICLES” (National University Corporation Hokkaido University, priority 2023, dated 2024)
